Article PMC7558535, “In Vitro Metabolism of DWP16001, a Novel Sodium-Glucose Cotransporter 2 Inhibitor, in Human and Animal Hepatocytes” (Pharmaceutics, 2020)

What was measured:
Format in all cases: in vitro ADME
[1] = tested on: mouse hepatocytes; assay: Metabolic stability in mouse hepatocytes
Experimental: (§1) To evaluate the metabolic stability of DWP16001 in human, dog, monkey, mouse, and rat hepatocytes, pooled cryopreserved hepatocytes were carefully thawed in recovery medium and resuspended in incubation medium (Krebs–Henseleit buffer for mouse, rat, and human; William’s E media for dog and monkey) to 0.5 × 10^6 cells/mL for mouse, 0.67 × 10^6 cells/mL for rat, and 1.0 × 10^6 cells/mL for dog, monkey, and human in accordance with the manufacturer’s protocols. Then, 60-μL aliquots of these hepatocyte suspensions and an equal volume of 2 μM DWP16001 in incubation medium were mixed in 96-well plates and incubated in triplicate for 0, 30, 60, 90, 120, 180, or 240 min in a CO2 incubator at 37 °C. Reactions were stopped by addition of 120 µL of ice-cold acetonitrile to each well and the cell suspension was sonicated for 5 min at 4 °C, followed by centrifugation at 15,000× g for 10 min at 4 °C after 5 min of sonication. 80-µL aliquots of the supernatants were then vortex-mixed with 20 μL of ice-cold ketoconazole (an internal standard) in acetonitrile and analyzed by LC–tandem mass spectrometry (LC-MS/MS). The peak area ratios of DWP16001 versus internal standard at each sampling point were used for the subsequent calculation. Elimination parameters, including half-life (t1/2), intrinsic clearance (Clint), and hepatic clearance (Clhep) of DWP16001 in mouse, rat, dog, monkey, and human were calculated by the following equations [19]. (1) t1/2min=ln2/−k elimination slope (2) ClintmL/min/kg=ln2/t1/2×mL incubation/hepatocytes 10^6 cells×B×10^6 cells/g liver×A g liver/kg BW (3) ClhepmL/min/kg=Qh×Clint/Qh+Clint (4) Hepatic extraction ratio = Clhep/Qh
(§2) Here, A has values of 87.5, 40, 32, 32, and 25.7; B has values of 135, 117, 215, 120, and 139; Qh (representing hepatic blood flow) has values of 90, 55.2, 30.9, 43.4, and 20.7 mL/min/kg, for mouse, rat, dog, monkey, and human, respectively. Hepatic extraction ratio values of ≤ 0.25, 0.25–0.75, and ≥ 0.75 were regarded as low, moderate, and high, respectively.

[2] = Metabolic stability in mouse hepatocytes; conditions: pooled cryopreserved hepatocytes, mouse hepatocytes
Experimental: as §1, §2

[3] = target: T1, UGT1A4 (Homo sapiens, UniProt P22310); assay: UGT screening, cDNA-expressed UGT1A4
T1 construct: purchased Corning Life Sciences
T1 sequence (P22310 29-534): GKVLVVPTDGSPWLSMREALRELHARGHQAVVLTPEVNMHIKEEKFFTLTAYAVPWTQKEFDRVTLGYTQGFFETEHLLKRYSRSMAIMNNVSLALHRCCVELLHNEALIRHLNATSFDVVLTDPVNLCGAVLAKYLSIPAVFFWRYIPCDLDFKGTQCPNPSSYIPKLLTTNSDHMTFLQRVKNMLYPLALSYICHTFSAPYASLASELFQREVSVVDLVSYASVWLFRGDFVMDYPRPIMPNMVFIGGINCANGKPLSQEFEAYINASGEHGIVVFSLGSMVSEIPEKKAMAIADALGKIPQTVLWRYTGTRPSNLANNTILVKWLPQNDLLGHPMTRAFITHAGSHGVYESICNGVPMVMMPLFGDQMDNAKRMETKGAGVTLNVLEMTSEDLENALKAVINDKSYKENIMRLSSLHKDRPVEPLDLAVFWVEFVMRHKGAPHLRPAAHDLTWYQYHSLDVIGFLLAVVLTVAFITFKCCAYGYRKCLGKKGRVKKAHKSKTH
Experimental: To screen for UGT enzymes responsible for glucuronidation of DWP16001, 100 μL of reaction mixtures containing 13 human cDNA-expressed UGT enzymes (1A1, 1A3, 1A4, 1A6, 1A7, 1A8, 1A9, 1A10, 2B4, 2B7, 2B10, 2B15, and 2B17) at 0.1 mg protein/mL, 5 mM UDPGA, 0.025 mg/mL alamethicin, and 25 μM DWP16001 or M1 in 50 mM Tris buffer (pH 7.4) were incubated at 37 °C for 30 min in triplicate. Reactions were stopped by adding 100 μL of ketoconazole (internal standard, 200 ng/mL) in acetonitrile, followed by vortex-mixing and centrifugation (15,000× g, 8 min, 4 °C). The supernatant (75 μL) was diluted with equal volume of 30% acetonitrile and aliquots (5 μL) were injected into an LC-MS/MS system.

[4] = target: T2, CYP2C19 (Homo sapiens, UniProt P33261); assay: Enzyme kinetics of metabolite formation in cDNA-expressed CYP2C19 supersomes
T2 construct: purchased Corning Life Sciences
Experimental: (§3) To calculate the enzyme kinetic parameters for the M1 and M2 formation from DWP16001, DWP16001 (final concentrations, 1–200 μM) was incubated with NADPH-generating system, pooled human liver microsomes (0.25 mg/mL), or human cDNA-expressed CYP3A4 or CYP2C19 supersomes (10 pmol) at 37 °C for 30 min in triplicate. Reactions were stopped by addition of 400 μL of ice-cold ketoconazole (200 ng/mL) in acetonitrile. Following vortex-mixing and centrifugation (15,000× g, 8 min, 4 °C), 75 μL aliquots of the supernatant were diluted with 75 µL of 30% acetonitrile; 5 μL aliquots were injected into an LC−MS/MS system.
(§4) Apparent kinetic parameters (Km, Vmax and n) for the formation of M1, M2, and M3 from DWP16001 by human liver microsomes, CYP3A4, or CYP2C19 were calculated as follows: the unweighted formation rates of M1, M2, and M3 over a range of DWP16001 concentrations were fitted to the Hill equation model [V = Vmax × S^n/(Km^n + S^n)] or the single enzyme model [V = Vmax × S/(Km + S)] using Enzyme Kinetics software (version 1.1 SPSS Inc., Chicago, IL, USA). In the above equations, V means the reaction velocity of the formation of M1, M2, and M3 at given concentration [S] of DWP16001, Vmax means the maximum reaction velocity, n means the Hill constant, and Km means the DWP16001 concentration at which the reaction velocity is 50% of Vmax.

[5] = target: T3, CYP3A4 (Homo sapiens, UniProt P08684); assay: Enzyme kinetics of metabolite formation in cDNA-expressed CYP3A4 supersomes
T3 construct: purchased Corning Life Sciences
Experimental: as §3, §4

[6] = CYP2C19 supersomes, kinetic model fitted

T2 sequence (P33261 whole entry): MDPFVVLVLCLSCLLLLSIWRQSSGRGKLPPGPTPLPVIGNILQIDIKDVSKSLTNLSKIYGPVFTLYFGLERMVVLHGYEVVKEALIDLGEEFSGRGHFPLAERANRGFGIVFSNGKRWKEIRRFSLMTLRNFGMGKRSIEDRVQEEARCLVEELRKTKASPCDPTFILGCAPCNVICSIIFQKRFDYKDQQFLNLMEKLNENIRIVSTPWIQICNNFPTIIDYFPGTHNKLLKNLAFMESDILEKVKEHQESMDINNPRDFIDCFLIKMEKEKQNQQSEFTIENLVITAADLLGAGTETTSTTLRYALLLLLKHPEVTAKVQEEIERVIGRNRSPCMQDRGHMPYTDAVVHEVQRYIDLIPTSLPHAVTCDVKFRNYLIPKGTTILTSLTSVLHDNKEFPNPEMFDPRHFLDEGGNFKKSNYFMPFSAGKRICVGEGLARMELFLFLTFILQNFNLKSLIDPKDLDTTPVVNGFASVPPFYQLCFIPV
T3 sequence (P08684 whole entry): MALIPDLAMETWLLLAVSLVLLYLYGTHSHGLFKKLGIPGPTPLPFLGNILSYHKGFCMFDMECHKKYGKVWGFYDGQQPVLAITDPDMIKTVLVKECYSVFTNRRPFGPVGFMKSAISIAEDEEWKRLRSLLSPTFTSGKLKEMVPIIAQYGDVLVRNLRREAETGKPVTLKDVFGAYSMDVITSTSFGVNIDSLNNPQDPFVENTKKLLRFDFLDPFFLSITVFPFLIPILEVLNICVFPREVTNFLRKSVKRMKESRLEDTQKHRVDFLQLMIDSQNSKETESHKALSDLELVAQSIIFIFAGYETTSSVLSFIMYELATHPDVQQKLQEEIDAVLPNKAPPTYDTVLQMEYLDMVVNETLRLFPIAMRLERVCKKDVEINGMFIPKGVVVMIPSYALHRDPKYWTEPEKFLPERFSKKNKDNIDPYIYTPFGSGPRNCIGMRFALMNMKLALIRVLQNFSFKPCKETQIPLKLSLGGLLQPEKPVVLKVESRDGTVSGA

Hepatic extraction ratio class ([1]; mouse): moderate (0.25–0.75)
Hepatic extraction ratio ([1]; mouse hepatocytes): 0.41
Clhep ([1]; mouse hepatocytes, well-stirred model): 36.5 mL/min/kg
CLint scaled at 1 μM [2]: 61.4 mL/min/kg
half-life at 1 μM ([2]; 37 °C, 0-240 min): 8.88 h
Substrate of UGT1A4 [3]: substrate
M3 formation from DWP16001 in enzyme kinetic analysis ([4]; CYP2C19): not detected
M1 Formation Mode [4, 6]: Single enzyme
M2 Formation Mode [4, 6]: Hill
M3 formation kinetic model [5]: single enzyme kinetics
M1 Formation Mode ([5]; kinetic model fitted): Hill
M2 Formation Mode ([5]; kinetic model fitted): Hill
Structure (SMILES): OC[C@H]1O[C@@H](c2cc(Cc3ccc(C4CC4)cc3)c(Cl)c3c2CCO3)[C@H](O)[C@@H](O)[C@@H]1O [DWP16001, (2S,3R,4R,5S,6R)-2-(7-chloro-6-(4-cyclopropylbenzyl)-2,3-dihydrobenzofuran-4-yl)-6-(hydroxymethyl)tetrahydro-2H-pyran-3,4,5-triol]
